Values belong to the molecule of their own block, whether it stands above or below them.
Tests used:
[1] = tested on: uric acid in blood; assay: Multiple dose study (SDD, 14 days): uric acid in blood of healthy subjects; type: in vivo, human; conditions: 600 mg BID; 30 subjects enrolled in the study
Description: (§1) Uric acid measurements were performed using a commercial colorimetric assay kit (Beckman Coulter).
Multiple oral doses of 100 mg twice daily (BID), 300 mg BID, and 600 mg BID of 4-[2-(5-amino-1H-pyrazol-4-yl)-4-chlorophenoxy]-5-chloro-2-fluoro-N-(1,3-thiazol-4-yl)benzenesulfonamide SDD dispersion for oral administration, and placebo, were investigated for 14 days. Subjects were fasted overnight prior to the morning doses and for at least 2 hours prior to the evening doses. Food was withheld for at least 2 hours postdose.
A total of 30 subjects (all male) were enrolled in the study and 27 subjects completed the study (three subjects were withdrawn due to adverse events during treatment with 600 mg BID 4-[2-(5-amino-1H-pyrazol-4-yl)-4-chlorophenoxy]-5-chloro-2-fluoro-N-(1,3-thiazol-4-yl)benzenesulfonamide).

[2] = tested on: uric acid in blood; assay: Multiple dose study (TS, 14 days): uric acid in blood of healthy and elderly subjects; type: in vivo, human
Description: as §1
(§2) Multiple oral doses of 4-[2-(5-amino-1H-pyrazol-4-yl)-4-chlorophenoxy]-5-chloro-2-fluoro-N-(1,3-thiazol-4-yl)benzenesulfonamide TS dispersion for oral administration, and placebo, were investigated for 14 days, as follows: • healthy subjects, 300 mg twice daily (BID,) • healthy subjects, 450 mg BID, and • elderly subjects, 300 mg BID.
(§3) Subjects were fasted overnight prior to the morning doses and for at least 2 hours prior to the evening doses. Food was withheld for at least 2 hours postdose.
A total of 49 subjects were enrolled in the study of which 39 received 4-[2-(5-amino-1H-pyrazol-4-yl)-4-chlorophenoxy]-5-chloro-2-fluoro-N-(1,3-thiazol-4-yl)benzenesulfonamide TS and 10 received placebo.

[3] = tested on: uric acid in urine; assay: Multiple dose study (TS, 14 days): fraction of uric acid excreted in urine; type: in vivo, human; conditions: for Fraction excreted of uric acid: urine
Description: as §2, §3
Uric acid was also measured in urine collected over 24 hours prior to dosing on Day 1, and then on Days 6, 14 and 16. The percent excreted fraction of uric acid in urine was calculated and analyzed with a linear mixed effects model.

[4] = molecular target: T1, URAT-1 transporter (Homo sapiens, UniProt Q96S37); assay: URAT-1 inhibitor activity: [14C]-uric acid uptake in HEK-URAT1 cells; type: cell-based; conditions: [14C]-uric acid (20 μM), 2 minutes, normalised to the standard compound benzbromarone, read-out: inhibition of uric acid uptake (IC50)
T1 construct: expressed in transfected cells; host or cells: HEK293 cells, transient transfection with Lipofectamine 2000
T1 sequence (Q96S37 1-553): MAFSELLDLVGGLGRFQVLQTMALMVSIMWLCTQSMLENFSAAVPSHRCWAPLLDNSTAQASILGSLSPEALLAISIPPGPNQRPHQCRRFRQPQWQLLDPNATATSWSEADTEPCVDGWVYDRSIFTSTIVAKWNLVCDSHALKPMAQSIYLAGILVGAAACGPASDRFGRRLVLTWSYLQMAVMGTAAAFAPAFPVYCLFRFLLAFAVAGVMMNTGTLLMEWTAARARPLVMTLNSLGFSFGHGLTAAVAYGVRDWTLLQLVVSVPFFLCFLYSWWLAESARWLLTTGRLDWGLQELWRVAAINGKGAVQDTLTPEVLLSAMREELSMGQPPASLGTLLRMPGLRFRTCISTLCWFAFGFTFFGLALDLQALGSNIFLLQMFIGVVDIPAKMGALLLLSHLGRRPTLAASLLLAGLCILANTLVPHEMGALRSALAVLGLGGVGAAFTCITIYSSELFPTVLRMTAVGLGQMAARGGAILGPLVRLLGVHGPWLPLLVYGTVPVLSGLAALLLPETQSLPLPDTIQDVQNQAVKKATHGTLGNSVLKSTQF
Description: The potency of 4-[2-(5-amino-1H-pyrazol-4-yl)-4-chlorophenoxy]-5-chloro-2-fluoro-N-(1,3-thiazol-4-yl)benzenesulfonamide as an inhibitor of the URAT-1 transporter was determined as follows.
HEK293 cells were grown in medium consisting of Dulbecco's modified Eagle medium (DMEM) with L-GlutaMax (4.5 g of glucose per litre), supplemented with heat-inactivated foetal calf serum (10% v/v), 100 U/mL penicillin and 100 μg/mL streptomycin. The HEK cells were routinely cultured in 75 cm^2 tissue culture flasks in a humidified incubator at approximately 37° C. in approximately 95% air/5% CO2. […]
One day after transfection, culture medium was removed from the wells and the cells were pre-incubated with 0.2 mL of chlorine-free incubation medium (125 mM Na-gluconate, 4.8 mM K-gluconate, 1.3 mM Ca-gluconate, 1.2 mM KH2PO4, 1.2 mM MgSO4, 5.6 mM D-glucose, 25 mM HEPES, pH 7.4), in the absence and presence of 4-[2-(5-amino-1H-pyrazol-4-yl)-4-chlorophenoxy]-5-chloro-2-fluoro-N-(1,3-thiazol-4-yl)benzenesulfonamide (0-30 μM), for 15 minutes at approximately 37° C. […] The concentrations of [^14C]-uric acid were determined by liquid scintillation counting (LSC). The inhibition of [^14C]-uric acid transport was also determined in the presence of the known inhibitor benzbromarone (30 μM). […]
The amount of radioactivity present in cell lysate samples was determined by liquid scintillation counting (LSC). […]

[5] = tested on: uric acid in blood; assay: Single dose study: uric acid in blood of healthy subjects (colorimetric assay kit); type: in vivo, human; conditions: fasted
Description: as §1
Single doses of 4-[2-(5-amino-1H-pyrazol-4-yl)-4-chlorophenoxy]-5-chloro-2-fluoro-N-(1,3-thiazol-4-yl)benzenesulfonamide SDD (‘SDD’) dispersion for oral administration, ranging from 10 mg to 2400 mg, were investigated. In addition, single doses of 4-[2-(5-amino-1H-pyrazol-4-yl)-4-chlorophenoxy]-5-chloro-2-fluoro-N-(1,3-thiazol-4-yl)benzenesulfonamide tosylate (‘TS’) dispersion for oral administration, ranging from 200 mg to 1000 mg, were also investigated.
The following doses were investigated and all doses were given in the fasted state with the exception of 200 mg and 1000 mg SDD dispersions, which were given in both the fasted state and after a high-fat meal (‘fed’).
A total of 61 subjects (all male) participated and all received at least one dose of SDD or TS dispersion for oral administration.
Mean data of uric acid levels per dose group are given as follows: • SDD fasted: Table 5 • SDD fed and fasted Table 6 • TS Table 7

[6] = Stability of the tosylate salt versus free base and other salts; type: physicochemical
[7] = Aqueous solubility of the tosylate salt; type: physicochemical
[8] = tested on: uric acid in urine; assay: Multiple dose study (TS, 14 days): fraction of uric acid excreted in urine; type: in vivo, human; conditions: day 10
[9] = TS oral 300 mg BID, elderly subjects, day 6
[10] = TS oral 300 mg BID, elderly subjects, day 14
[11] = TS oral 300 mg BID, healthy subjects, day 6
[12] = TS oral 300 mg BID, healthy subjects, day 14
[13] = TS oral 450 mg BID, healthy subjects, day 6
[14] = TS oral 450 mg BID, healthy subjects, day 14

IC50 [4]: 3.54 µM
SMILES: Nc1[nH]ncc1-c1cc(Cl)ccc1Oc1cc(F)c(S(=O)(=O)Nc2cscn2)cc1Cl [4-[2-(5-amino-1H-pyrazol-4-yl)-4-chlorophenoxy]-5-chloro-2-fluoro-N-(1,3-thiazol-4-yl)benzenesulfonamide]
subjects withdrawn due to adverse events [1]: three
median blood uric acid concentration versus LLN ([2]; 450 mg BID, Day 3): fell below LLN
Concentrations of uric acid in blood following dosing ([2]; TS BID for 14 days): decreased
median blood uric acid concentration versus LLN ([2]; all cohorts (300 mg and 450 mg BID), Day 6): below the LLN
time until blood uric acid returned to above the LLN after cessation of dosing ([2]; all subjects (i.e. by Day 16)): ≤ 2 days
excreted fraction of uric acid in urine after dosing ([3]; Day 16): returns to baseline by Day 16
excreted fraction of uric acid in urine during dosing ([3]; TS BID, 24 hour urine): increases during dosing

aqueous solubility [7]: good aqueous solubility
SMILES: Cc1ccc(S(=O)(=O)O)cc1.Nc1[nH]ncc1-c1cc(Cl)ccc1Oc1cc(F)c(S(=O)(=O)Nc2cscn2)cc1Cl [TS, 4-[2-(5-amino-1H-pyrazol-4-yl)-4-chlorophenoxy]-5-chloro-2-fluoro-N-(1,3-thiazol-4-yl)benzenesulfonamide tosylate]
Mean uric acid ([5]; TS oral single dose 200 mg, 0 hours): 5.92 mg/dL
Mean uric acid ([5]; TS oral single dose 200 mg, 48 hours): 5.43 mg/dL
Mean uric acid ([5]; TS oral single dose 600 mg, 0 hours): 6.21 mg/dL
Mean uric acid ([5]; TS oral single dose 600 mg, 48 hours): 5.04 mg/dL
Mean uric acid ([5]; TS oral single dose 1000 mg, 0 hours): 6.40 mg/dL
Mean uric acid ([5]; TS oral single dose 1000 mg, 48 hours): 4.86 mg/dL
Mean uric acid ([2]; TS oral 300 mg BID for 14 days, elderly subjects, day 0): 5.43 mg/dL
Mean uric acid ([2]; TS oral 300 mg BID for 14 days, healthy subjects, day 0): 5.56 mg/dL
Mean uric acid ([2]; TS oral 300 mg BID, elderly subjects, day 3): 3.41 mg/dL
Mean uric acid [2, 9]: 2.99 mg/dL
Mean uric acid ([2]; TS oral 300 mg BID, elderly subjects, day 8): 3.57 mg/dL
Mean uric acid ([2]; TS oral 300 mg BID, elderly subjects, day 10): 3.37 mg/dL
Mean uric acid [2, 10]: 3.59 mg/dL
Mean uric acid ([2]; TS oral 300 mg BID, healthy subjects, day 3): 3.50 mg/dL
Mean uric acid [2, 11]: 3.23 mg/dL
Mean uric acid ([2]; TS oral 300 mg BID, healthy subjects, day 8): 3.54 mg/dL
Mean uric acid ([2]; TS oral 300 mg BID, healthy subjects, day 10): 3.79 mg/dL
Mean uric acid [2, 12]: 3.78 mg/dL
Mean uric acid ([2]; TS oral 450 mg BID for 14 days, healthy subjects, day 0): 5.89 mg/dL
Mean uric acid ([2]; TS oral 450 mg BID, healthy subjects, day 3): 3.05 mg/dL
Mean uric acid [2, 13]: 3.00 mg/dL
Mean uric acid ([2]; TS oral 450 mg BID, healthy subjects, day 8): 3.21 mg/dL
Mean uric acid ([2]; TS oral 450 mg BID, healthy subjects, day 10): 3.45 mg/dL
Mean uric acid [2, 14]: 3.56 mg/dL
Fraction excreted of uric acid ([3]; TS oral 300 mg BID, elderly subjects, day 1): 6.17%
Fraction excreted of uric acid [3, 9]: 13.79%
Fraction excreted of uric acid [3, 10]: 7.66%
Fraction excreted of uric acid ([3]; TS oral 300 mg BID, healthy subjects, day 1): 8.44%
Fraction excreted of uric acid [3, 11]: 17.41%
Fraction excreted of uric acid [3, 12]: 6.43%
Fraction excreted of uric acid ([3]; TS oral 450 mg BID, healthy subjects, day 1): 8.61%
Fraction excreted of uric acid [3, 13]: 19.81%
Fraction excreted of uric acid [3, 14]: 7.69%
solid form stability ([6]; crystalline form, versus free base): better solid form stability than the free base
stability with regard to disassociation ([6]; versus other salts): greater stability with regard to disassociation than other salts
chemical stability ([6]; with regard to formulation and storage, versus free base): improved chemical stability over the free base
Fraction excreted of uric acid ([8]; TS oral 300 mg BID, elderly subjects): 13.02%
Fraction excreted of uric acid ([8]; TS oral 300 mg BID, healthy subjects): 14.99%
Fraction excreted of uric acid ([8]; TS oral 450 mg BID, healthy subjects): 17.09%

From patent publication US20140248252A1, “New Salt And Medical Use” (Pfizer Limited, priority 2011, published 2014)
